Reference: PMC11844072, “Novel 5,6-dichlorobenzimidazole derivatives as dual BRAFWT and BRAFV600E inhibitors: design, synthesis, anti-cancer activity and molecular dynamics simulations” (BMC Chemistry, 2025)

Assays:
Experiment in all cases: NCI 5-dose assay
Format in all cases: cell-based
OVCAR-8 = conditions: Homo sapiens; OVCAR-8, Ovarian cancer
Procedure: (§1) The synthesized dichlorobenzimidazoles 10a–p were assayed for their influence on divers cancer cell lines according to the method presented in the Additional file A.
(§2) 5. Screening of cytotoxic activity against a panel of sixty human tumor cell lines
(§3) The selected compounds by NCI were evaluated for their anticancer activity in a two-stage process. First, these compounds were screened against the full NCI 60 cell lines panel at a single high dose of 10 µM. Then, the output from the single dose screen is reported as a mean graph. […]
(§4) at five different minimal concentrations.
(§5) Assay protocol. The human tumor cell lines of the cancer screening panel are grown in RPMI 1640 medium containing 5% fetal bovine serum and 2 mM L-glutamine. For a typical screening experiment, cells are inoculated into 96 well microtiter plates in 100 µL at plating densities ranging from 5000 to 40,000 cells/well depending on the doubling time of individual cell lines. After cell inoculation, the microtiter plates are incubated at 37 °C, 5% CO 2, 95% air and 100% relative humidity for 24 h prior to addition of the experimental drugs.
(§6) After 24 h, two plates of each cell line are fixed in situ with TCA, to represent a measurement of the cell population for each cell line at the time of drug addition (Tz). The experimental drugs are solubilized in dimethyl sulfoxide at 400-fold the desired final maximum test concentration and stored frozen prior to use. At the time of drug addition, an aliquot of frozen concentrate is thawed and diluted to twice the desired final maximum test concentration with complete medium containing 50 µg/mL gentamicin. Additional four, 10-fold or ½ log serial dilutions are made to provide a total of five drug concentrations plus control.
(§7) Aliquots of […] of these different drug dilutions are added to the appropriate microtiter wells already containing […] of medium, resulting in the required final drug concentrations.
(§8) Following drug addition, the plates are incubated for an additional 48 h at 37 °C, 5% CO 2, 95% air, and 100% relative humidity. For adherent cells, the assay is terminated by the addition of cold TCA.
(§9) Cells are fixed in situ by the gentle addition of 50 µL of cold 50% (w/v) TCA (final concentration, 10% TCA) and incubated for 60 min at 4 °C. The supernatant is discarded, and the plates are washed five times with tap water and air dried. Sulforhodamine B (SRB) solution ([…]) at 0.4% (w/v) in 1% acetic acid is added to each well, and plates are incubated for 10 min at room temperature. After staining, unbound dye is removed by washing five times with 1% acetic acid and the plates are air dried. Bound stain is subsequently solubilized with 10 mM trizma base, and the absorbance is read on an automated plate reader at a wavelength of 515 nm. For suspension cells, the methodology is […]
(§10) the same except that the assay is terminated by fixing settled cells at the bottom of the wells by gently adding 50 µl of 80% TCA (final concentration, 16% TCA). Using the seven absorbance measurements [time zero, (Tz), control growth, (C), and test growth in the presence of drug at the five concentration levels (Ti)], the percentage growth is calculated at each of the drug concentrations […]
(§11) Percentage growth inhibition is calculated as: [(Ti Tz)/(C–Tz)] x 100 for concentrations for which Ti>/=Tz and [(Ti-Tz)/Tz] x 100 for concentrations for which Ti < Tz.
(§12) Three dose response parameters are calculated for each experimental agent. Growth […]
(§13) concentration resulting in a 50% reduction in the net protein increase (as measured by SRB staining) in control cells during the drug incubation. The drug concentration resulting in total growth inhibition (TGI) is calculated from Ti = Tz. […]
(§14) reduction in the measured protein at the end of the drug treatment as compared to that at the beginning) indicating a net loss of cells following treatment is calculated from [(Ti–Tz)/Tz] x 100 =
(§15) _50. Values are calculated for each of these three parameters if the level of activity is reached; […]

MDA-MB-231/ATCC = conditions: Homo sapiens, Breast cancer
Procedure: as §1, §2, §3, §4, §5, §6, §7, §8, §9, §10, §11, §12, §13, §14, §15

SNB-19 = conditions: Homo sapiens; SNB-19, CNS cancer
Procedure: as §1, §2, §3, §4, §5, §6, §7, §8, §9, §10, §11, §12, §13, §14, §15

T-47D = conditions: Homo sapiens, T47D, Breast cancer
Procedure: as §1, §2, §3, §4, §5, §6, §7, §8, §9, §10, §11, §12, §13, §14, §15

HS 578T = conditions: Homo sapiens, Breast cancer
Procedure: as §1, §2, §3, §4, §5, §6, §7, §8, §9, §10, §11, §12, §13, §14, §15

HCT-116 = conditions: Homo sapiens; HCT-116, Colon cancer
Procedure: as §1, §2, §3, §4, §5, §6, §7, §8, §9, §10, §11, §12, §13, §14, §15

SK-OV-3 = conditions: Homo sapiens; SK-OV-3, Ovarian cancer
Procedure: as §1, §2, §3, §4, §5, §6, §7, §8, §9, §10, §11, §12, §13, §14, §15

SN12C = conditions: Homo sapiens, Renal cancer
Procedure: as §1, §2, §3, §4, §5, §6, §7, §8, §9, §10, §11, §12, §13, §14, §15

MDA-MB-435 = conditions: Homo sapiens; MDA-MB-435, Melanoma
Procedure: as §1, §2, §3, §4, §5, §6, §7, §8, §9, §10, §11, §12, §13, §14, §15

HCT-15 = conditions: Homo sapiens; HCT-15, Colon cancer
Procedure: as §1, §2, §3, §4, §5, §6, §7, §8, §9, §10, §11, §12, §13, §14, §15

OVCAR-3 = conditions: Homo sapiens; OVCAR-3, Ovarian cancer
Procedure: as §1, §2, §3, §4, §5, §6, §7, §8, §9, §10, §11, §12, §13, §14, §15

HOP-62 = conditions: Homo sapiens; HOP-62, Non-small cell lung cancer
Procedure: as §1, §2, §3, §4, §5, §6, §7, §8, §9, §10, §11, §12, §13, §14, §15

HOP-92 = conditions: Homo sapiens; HOP-92, Non-small cell lung cancer
Procedure: as §1, §2, §3, §4, §5, §6, §7, §8, §9, §10, §11, §12, §13, §14, §15

M14 = conditions: Homo sapiens; M14, Melanoma
Procedure: as §1, §2, §3, §4, §5, §6, §7, §8, §9, §10, §11, §12, §13, §14, §15

NCI-H23 = conditions: Homo sapiens; NCI-H23, Non-small cell lung cancer
Procedure: as §1, §2, §3, §4, §5, §6, §7, §8, §9, §10, §11, §12, §13, §14, §15

NCI/ADR-RES = conditions: Homo sapiens, Ovarian cancer
Procedure: as §1, §2, §3, §4, §5, §6, §7, §8, §9, §10, §11, §12, §13, §14, §15

TK-10 = conditions: Homo sapiens; TK-10, Renal cancer
Procedure: as §1, §2, §3, §4, §5, §6, §7, §8, §9, §10, §11, §12, §13, §14, §15

SF-268 = conditions: Homo sapiens; SF-268, CNS cancer
Procedure: as §1, §2, §3, §4, §5, §6, §7, §8, §9, §10, §11, §12, §13, §14, §15

NCI-H522 = conditions: Homo sapiens; NCI-H522, Non-small cell lung cancer
Procedure: as §1, §2, §3, §4, §5, §6, §7, §8, §9, §10, §11, §12, §13, §14, §15

RPMI-8226 = conditions: Homo sapiens; RPMI-8226, Leukemia
Procedure: as §1, §2, §3, §4, §5, §6, §7, §8, §9, §10, §11, §12, §13, §14, §15

DU-145 = conditions: Homo sapiens; DU-145, Prostate cancer
Procedure: as §1, §2, §3, §4, §5, §6, §7, §8, §9, §10, §11, §12, §13, §14, §15

SR = conditions: Homo sapiens, Leukemia
Procedure: as §1, §2, §3, §4, §5, §6, §7, §8, §9, §10, §11, §12, §13, §14, §15

CCRF-CEM = conditions: Homo sapiens, Leukemia
Procedure: as §1, §2, §3, §4, §5, §6, §7, §8, §9, §10, §11, §12, §13, §14, §15

Row | Compound | GI50 (OVCAR-8) | GI50 (MDA-MB-231/ATCC) | GI50 (SNB-19) | GI50 (T-47D) | GI50 (HS 578T) | GI50 (HCT-116) | GI50 (SK-OV-3) | GI50 (SN12C) | GI50 (MDA-MB-435) | GI50 (HCT-15) | GI50 (OVCAR-3) | GI50 (HOP-62) | GI50 (HOP-92) | GI50 (M14) | GI50 (NCI-H23) | GI50 (NCI/ADR-RES) | GI50 (TK-10) | GI50 (SF-268) | GI50 (NCI-H522) | GI50 (RPMI-8226) | further results
1 | COC(=O)COc1ccc(C=NNC(=O)Cn2c(-c3ccc(OC)cc3)nc3cc(Cl)c(Cl)cc32)cc1OC [Compound 10p, Methyl-2-(4-((2-(2-(5,6-dichloro-2-(4-methoxyphenyl)-1H-benzo[d]imidazol-1-yl)acetyl)hydrazono)methyl)-2-methoxyphenoxy)acetate] | 2.54 µM | 13.8 µM | > 72.5 µM | 4.47 µM | 4.34 µM | > 72.5 µM | 16 µM | 2.2 µM | 22.9 µM | > 72.5 µM | > 72.5 µM | > 72.5 µM | 12.5 µM | > 72.5 µM | > 72.5 µM | 3.05 µM | 12.6 µM | 32.4 µM | > 72.5 µM | > 72.5 µM | GI50 (DU-145): 1.9 µM; GI50 (SR): 2.15 µM; GI50 (CCRF-CEM): > 72.5 µM
2 | COC(=O)COc1ccc(C=NNC(=O)Cn2c(-c3ccc(OC)cc3)nc3cc(Cl)c(Cl)cc32)cc1 [Compound 10h, Methyl-2-(4-((2-(2-(5,6-dichloro-2-(4-methoxyphenyl)-1H-benzo[d]imidazol-1-yl)acetyl)hydrazono)methyl)phenoxy)acetate] | 2.93 µM | 6.66 µM | > 82.5 µM | 2.68 µM | 10.1 µM | 68 µM | 19.1 µM | 2.95 µM | 14.8 µM | 11.2 µM | 10.6 µM | 17.3 µM | 11.4 µM | 17.5 µM | > 82.5 µM | 5.22 µM | 13.2 µM | 10.1 µM | 14.7 µM | 71.2 µM | GI50 (DU-145): 1.67 µM; GI50 (SR): 2.8 µM; GI50 (CCRF-CEM): 4.78 µM
3 | COC(=O)COc1cc(C=NNC(=O)Cn2c(-c3ccc(OC)cc3)nc3cc(Cl)c(Cl)cc32)ccc1OC [Compound 10o, Methyl-2-(5-((2-(2-(5,6-dichloro-2-(4-methoxyphenyl)-1H-benzo[d]imidazol-1-yl)acetyl)hydrazono)methyl)-2-methoxyphenoxy)acetate] | 8.68 µM | 16.1 µM | > 100 µM | 12.7 µM | 2.68 µM | > 100 µM | 26 µM | 7.92 µM | > 100 µM | > 100 µM | > 100 µM | > 100 µM | 23.6 µM | > 100 µM | > 100 µM | 81.2 µM | 18.3 µM | > 100 µM | > 100 µM | > 100 µM | GI50 (DU-145): 4.79 µM; GI50 (SR): 3 µM; GI50 (CCRF-CEM): > 100 µM
